Test results: patent US20240165244A1 (Prelude Therapeutics Incorporated, priority 2022, published 2024)

Legend:
SMARCA4 = biological target: T1, SMARCA4 (Homo sapiens, UniProt P51532); assay: SMARCA4 HiBiT degradation assay in HeLa cells; assay type: cell-based; conditions: 18 hours, highest concentration 10 μM
T1 construct: SMARCA4-HiBiT knock-in Hela monoclonal cell (CS3023226); host or cells: HeLa monoclonal cells with heterozygous HiBiT knock-in at the endogenous SMARCA4 locus
Experimental: (§1) SMARCA2 HiBiT and SMARCA4 HiBiT Degradation Assay
HiBiT peptide knock-in of SMARCA2 in LgBiT expressing HEK293T cells was performed by CRISPR-mediated tagging system as described Promega. […] SMARCA2-HiBiT knock-in Hela monoclonal cell (CS302366) and SMARCA4-HiBiT knock-in Hela monoclonal cell (CS3023226) were purchased from Promega.
(§2) SMARCA2 HiBiT and SMARCA4 HiBiT Degradation Assay in HeLa Cells
Remove appropriate volume of resuspended cells from culture flask to accommodate 2500 cells/well @ 20 μL/well. […] Spin down at 1000 rpm for 5 min using tabletop centrifuge (SPINCHRON 15, Beckman).
Dispense test compounds onto plates using digital liquid dispenser (D300E, Tecan). Incubate plates in humidified tissue culture incubator @37° C. for 18 hours. […] Raw data files and compound information reports are swept into centralized data lake and deconvoluted using automated scripts designed by TetraScience, Inc. Data analysis, curve-fitting and reporting done in Dotmatics Informatics Suite using Screening Ultra module.

SMARCA2 = biological target: T2, SMARCA2 (Homo sapiens, UniProt P51531); assay: SMARCA2 HiBiT degradation assay in HeLa cells; assay type: cell-based; conditions: 18 hours, highest concentration 10 μM
T2 construct: SMARCA2-HiBiT knock-in Hela monoclonal cell (CS302366); host or cells: HeLa monoclonal cells with heterozygous HiBiT knock-in at the endogenous SMARCA2 locus
Experimental: as §1
HiBiT peptide knock-in of SMARCA2 in LgBiT expressing HEK293T cells was performed by CRISPR-mediated tagging system as described Promega. The homozygous HiBiT knock-in on c-terminus SMARCA2 was confirmed by sanger sequence. SMARCA2-HiBiT knock-in Hela monoclonal cell (CS302366) and SMARCA4-HiBiT knock-in Hela monoclonal cell (CS3023226) were purchased from Promega. The heterozygous HiBiT-knock-in was confirmed by sanger sequence in both SMARCA2-HiBiT and SMARCA4-HiBiT monoclonal cells.
as §2
Dispense 10 ul aliquot of prepared Hela-SMARCA2-HiBiT or Hela-SMARCA4-HiBiT cells (1:1 ratio of cells:Trypan Blue (#1450013, Bio-Rad)) onto cell counting slide (#145-0011, Bio-Rad) and obtain cell density and cell viability using cell counter (TC20, Bio-Rad). Remove appropriate volume of resuspended cells from culture flask to accommodate 2500 cells/well @ 20 μL/well. Transfer Hela-HiBiT cells to 50 mL conical (#430290, Corning). Spin down at 1000 rpm for 5 min using tabletop centrifuge (SPINCHRON 15, Beckman). Discard supernatant and resuspend cell pellet in modified EMEM (#30-2003, ATCC) cell culture media containing 10% FBS (F2422-500ML, Sigma), and 1× Penicillin/Streptomycin ([…]) (30-002-CI, Corning) to a cell density of 125,000 cells/mL. Dispense 20 μLof resuspended Hela-HiBit cells per well in 384-well TC treated plate (#12-565-343, Thermo Scientific) using standard cassette (#50950372, Thermo Scientific) on Multidrop Combi (#5840310, Thermo Scientific) inside laminar flow cabinet.
Compounds were dissolved in DMSO to make 10 mM stock and 3-fold series dilutions were further conducted keeping the highest concentration 10 μM. Dispense test compounds onto plates using digital liquid dispenser (D300E, Tecan). Incubate plates in humidified tissue culture incubator @37° C. for 18 hours. Add 20 μL of prepared Nano-Glo® HiBiT Lytic detection buffer (N3050, Promega) to each well of 384-well plate using small tube cassette (#24073295, Thermo Scientific) on Multidrop Combi, incubate @ RT for 30-60 min. Read plates on microplate reader (Envision 2105, PerkinElmer) using 384 well Ultra-Sensitive luminescence mode. Raw data files and compound information reports are swept into centralized data lake and deconvoluted using automated scripts designed by TetraScience, Inc. Data analysis, curve-fitting and reporting done in Dotmatics Informatics Suite using Screening Ultra module.

T1 sequence (P51532 whole entry): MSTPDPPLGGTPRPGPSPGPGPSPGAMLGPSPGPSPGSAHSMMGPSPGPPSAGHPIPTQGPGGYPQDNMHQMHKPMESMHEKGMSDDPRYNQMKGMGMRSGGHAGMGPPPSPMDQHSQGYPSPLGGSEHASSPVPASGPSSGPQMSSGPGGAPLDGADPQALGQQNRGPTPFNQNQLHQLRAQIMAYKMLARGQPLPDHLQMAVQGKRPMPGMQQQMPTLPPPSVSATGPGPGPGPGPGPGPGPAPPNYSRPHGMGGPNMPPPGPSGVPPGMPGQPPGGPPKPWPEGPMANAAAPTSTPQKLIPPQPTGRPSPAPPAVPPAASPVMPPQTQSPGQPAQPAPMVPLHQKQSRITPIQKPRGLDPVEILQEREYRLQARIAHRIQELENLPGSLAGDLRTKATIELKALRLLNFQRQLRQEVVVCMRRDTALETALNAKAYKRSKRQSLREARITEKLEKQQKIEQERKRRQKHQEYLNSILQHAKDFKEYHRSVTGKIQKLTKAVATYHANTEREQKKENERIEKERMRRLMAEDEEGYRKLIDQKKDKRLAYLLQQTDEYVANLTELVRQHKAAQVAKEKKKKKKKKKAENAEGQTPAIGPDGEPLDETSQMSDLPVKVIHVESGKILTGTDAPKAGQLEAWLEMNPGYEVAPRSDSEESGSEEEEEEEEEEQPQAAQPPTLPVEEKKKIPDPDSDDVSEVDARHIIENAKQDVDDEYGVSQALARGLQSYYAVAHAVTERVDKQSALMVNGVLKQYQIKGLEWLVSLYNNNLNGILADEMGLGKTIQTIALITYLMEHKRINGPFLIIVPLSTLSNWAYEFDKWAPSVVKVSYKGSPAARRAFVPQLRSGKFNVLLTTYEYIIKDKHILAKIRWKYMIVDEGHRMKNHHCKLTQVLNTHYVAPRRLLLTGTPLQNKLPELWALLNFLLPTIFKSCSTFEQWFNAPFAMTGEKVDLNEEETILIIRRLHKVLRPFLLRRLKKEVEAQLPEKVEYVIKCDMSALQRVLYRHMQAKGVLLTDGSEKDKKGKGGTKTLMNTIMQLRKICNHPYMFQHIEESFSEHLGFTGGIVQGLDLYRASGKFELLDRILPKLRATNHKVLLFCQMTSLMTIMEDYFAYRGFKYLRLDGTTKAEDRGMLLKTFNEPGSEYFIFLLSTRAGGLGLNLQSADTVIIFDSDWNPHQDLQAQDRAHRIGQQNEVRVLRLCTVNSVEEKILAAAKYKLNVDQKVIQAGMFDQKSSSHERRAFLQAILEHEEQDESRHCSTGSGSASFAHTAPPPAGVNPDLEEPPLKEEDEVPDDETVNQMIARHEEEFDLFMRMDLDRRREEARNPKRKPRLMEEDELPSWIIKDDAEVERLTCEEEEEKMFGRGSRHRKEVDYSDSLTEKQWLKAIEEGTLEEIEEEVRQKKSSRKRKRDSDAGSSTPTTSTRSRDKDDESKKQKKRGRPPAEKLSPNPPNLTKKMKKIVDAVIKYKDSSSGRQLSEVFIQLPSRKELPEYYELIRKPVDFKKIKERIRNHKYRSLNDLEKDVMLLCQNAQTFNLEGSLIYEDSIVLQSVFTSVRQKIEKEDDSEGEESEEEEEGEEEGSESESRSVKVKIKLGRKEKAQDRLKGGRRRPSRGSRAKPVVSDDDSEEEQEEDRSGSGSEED
T2 sequence (P51531 whole entry): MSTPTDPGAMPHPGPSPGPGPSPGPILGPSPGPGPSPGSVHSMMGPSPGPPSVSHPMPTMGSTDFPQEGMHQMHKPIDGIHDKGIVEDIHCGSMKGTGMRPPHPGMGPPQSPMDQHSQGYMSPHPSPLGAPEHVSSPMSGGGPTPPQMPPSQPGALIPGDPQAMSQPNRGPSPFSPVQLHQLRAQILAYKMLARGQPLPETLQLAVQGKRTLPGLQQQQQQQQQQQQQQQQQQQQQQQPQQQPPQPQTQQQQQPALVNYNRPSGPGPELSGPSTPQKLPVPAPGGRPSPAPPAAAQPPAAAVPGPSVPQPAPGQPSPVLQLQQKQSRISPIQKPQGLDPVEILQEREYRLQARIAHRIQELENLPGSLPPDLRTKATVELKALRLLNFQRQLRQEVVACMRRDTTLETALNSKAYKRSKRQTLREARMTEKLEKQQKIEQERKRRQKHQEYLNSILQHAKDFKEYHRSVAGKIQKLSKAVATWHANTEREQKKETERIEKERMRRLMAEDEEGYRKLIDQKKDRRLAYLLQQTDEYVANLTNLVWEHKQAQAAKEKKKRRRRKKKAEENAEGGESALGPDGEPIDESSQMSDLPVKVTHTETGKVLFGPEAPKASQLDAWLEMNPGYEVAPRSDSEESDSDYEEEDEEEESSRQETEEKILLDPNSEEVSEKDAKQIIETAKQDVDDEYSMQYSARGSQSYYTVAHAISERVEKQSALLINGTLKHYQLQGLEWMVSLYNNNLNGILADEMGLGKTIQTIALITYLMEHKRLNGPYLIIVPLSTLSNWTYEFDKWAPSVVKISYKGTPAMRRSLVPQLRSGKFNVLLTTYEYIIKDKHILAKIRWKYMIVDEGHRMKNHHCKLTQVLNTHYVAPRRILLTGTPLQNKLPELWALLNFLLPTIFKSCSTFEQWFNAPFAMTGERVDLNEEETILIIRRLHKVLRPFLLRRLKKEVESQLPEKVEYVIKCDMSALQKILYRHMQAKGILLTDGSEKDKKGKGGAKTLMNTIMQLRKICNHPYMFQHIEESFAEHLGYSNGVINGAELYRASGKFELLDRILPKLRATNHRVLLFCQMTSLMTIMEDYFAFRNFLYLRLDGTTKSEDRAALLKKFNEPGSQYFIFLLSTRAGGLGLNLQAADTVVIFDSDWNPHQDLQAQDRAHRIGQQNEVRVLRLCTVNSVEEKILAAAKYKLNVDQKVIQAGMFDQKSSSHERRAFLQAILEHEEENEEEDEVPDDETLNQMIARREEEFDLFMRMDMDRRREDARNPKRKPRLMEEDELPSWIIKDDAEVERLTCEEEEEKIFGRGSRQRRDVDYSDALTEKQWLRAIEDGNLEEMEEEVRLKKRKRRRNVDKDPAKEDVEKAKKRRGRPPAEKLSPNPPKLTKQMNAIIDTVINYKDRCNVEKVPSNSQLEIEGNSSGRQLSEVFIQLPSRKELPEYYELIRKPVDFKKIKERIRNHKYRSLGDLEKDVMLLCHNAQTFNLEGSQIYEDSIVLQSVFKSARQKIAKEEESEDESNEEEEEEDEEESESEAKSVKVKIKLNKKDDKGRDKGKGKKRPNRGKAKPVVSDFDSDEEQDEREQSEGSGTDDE

DC50 (SMARCA4) | Dmax (SMARCA4) | DC50 (SMARCA2) | Dmax (SMARCA2) | Compound
< 100 nM | > 75% | < 100 nM | > 75% | O=C1CC[C@H](N2Cc3ccc(N4CCN(Cc5ccc(O[C@@H]6C[C@@H]7CNc8nnc(-c9cccc(Cl)c9O)cc8N7C6)cc5)CC4)cc3C2=O)C(=O)N1 [Example 25, (S)-3-(6-(4-(4-(((6aR,8R)-2-(3-chloro-2-hydroxyphenyl)-5,6,6a,7,8,9-hexahydropyrrolo[1′,2′:4,5]pyrazino[2,3-c]pyridazin-8-yl)oxy)benzyl)piperazin-1-yl)-1-oxoisoindolin-2-yl)piperidine-2,6-dione]
< 100 nM | > 75% | < 100 nM | > 75% | O=C1CCC(N2Cc3ccc(N4CCN(Cc5cnc(S[C@@H]6C[C@@H]7CNc8nnc(-c9cc(F)cc(F)c9O)cc8N7C6)nc5)CC4)cc3C2=O)C(=O)N1 (stereo partly drawn) [Example 26, 3-(6-(4-((2-(((6aR,8R)-2-(3,5-difluoro-2-hydroxyphenyl)-5,6,6a,7,8,9-hexa-hydropyrrolo[1′,2′:4,5]pyrazino[2,3-c]pyridazin-8-yl)thio)pyrimidin-5-yl)methyl)piperazin-1-yl)-1-oxoisoindolin-2-yl)piperidine-2,6-dione]
< 100 nM | 50 to 75% | < 100 nM | > 75% | Cc1cc(O[C@@H]2C[C@@H]3CNc4nnc(-c5cc(F)cc(F)c5O)cc4N3C2)ncc1CN1CCN(c2ccc3c(c2)C(=O)N(C2CCC(=O)NC2=O)C3)CC1 (stereo partly drawn) [Example 27, 3-(6-(4-((6-(((6aR,8R)-2-(3,5-difluoro-2-hydroxyphenyl)-5,6,6a,7,8,9-hexahydropyrrolo[1′,2′:4,5]pyrazino[2,3-c]pyridazin-8-yl)oxy)-4-methylpyridin-3-yl)methyl)piperazin-1-yl)-1-oxoisoindolin-2-yl)piperidine-2,6-dione]
< 100 nM | 50 to 75% | < 100 nM | > 75% | Cc1cc(O[C@@H]2C[C@@H]3CNc4nnc(-c5cc(F)cc(F)c5O)cc4N3C2)ncc1CN1CCN(c2ccc3c(c2)C(=O)N([C@H]2CCC(=O)NC2=O)C3)CC1 [Example 28, (S)-3-(6-(4-((6-(((6aR,8R)-2-(3,5-difluoro-2-hydroxyphenyl)-5,6,6a,7,8,9-hexahydropyrrolo[1′,2′:4,5]pyrazino[2,3-c]pyridazin-8-yl)oxy)-4-methylpyridin-3-yl)methyl)piperazin-1-yl)-1-oxoisoindolin-2-yl)piperidine-2,6-dione]
< 100 nM | 50 to 75% | < 100 nM | > 75% | Cc1cc(O[C@@H]2C[C@@H]3CNc4nnc(-c5cc(F)cc(F)c5O)cc4N3C2)ncc1CN1CCC(c2ccc3c(c2)C(=O)N([C@H]2CCC(=O)NC2=O)C3)CC1 [Example 29, (S)-3-(6-(1-((6-(((6aR,8R)-2-(3,5-difluoro-2-hydroxyphenyl)-5,6,6a,7,8,9-hexahydropyrrolo[1′,2′:4,5]pyrazino[2,3-c]pyridazin-8-yl)oxy)-4-methylpyridin-3-yl)methyl)piperidin-4-yl)-1-oxoisoindolin-2-yl)piperidine-2,6-dione]
< 100 nM | > 75% | < 100 nM | > 75% | Cc1nc(O[C@@H]2C[C@@H]3CNc4nnc(-c5cc(F)cc(F)c5O)cc4N3C2)ccc1CN1CCN(c2ccc3c(c2)C(=O)N([C@H]2CCC(=O)NC2=O)C3)CC1 [Example 30, (S)-3-(6-(4-((6-(((6aR,8R)-2-(3,5-difluoro-2-hydroxyphenyl)-5,6,6a,7,8,9-hexahydropyrrolo[1′,2′:4,5]pyrazino[2,3-c]pyridazin-8-yl)oxy)-2-methylpyridin-3-yl)methyl)piperazin-1-yl)-1-oxoisoindolin-2-yl)piperidine-2,6-dione]
< 100 nM | > 75% | < 100 nM | > 75% | Cc1cc(CN2CCN(c3ccc4c(c3)C(=O)N(C3CCC(=O)NC3=O)C4)CC2)cnc1O[C@@H]1C[C@@H]2CNc3nnc(-c4cc(F)cc(F)c4O)cc3N2C1 (stereo partly drawn) [Example 31, 3-(6-(4-((6-(((6aR,8R)-2-(3,5-difluoro-2-hydroxyphenyl)-5,6,6a,7,8,9-hexahydropyrrolo[1′,2′:4,5]pyrazino[2,3-c]pyridazin-8-yl)oxy)-5-methylpyridin-3-yl)methyl)piperazin-1-yl)-1-oxoisoindolin-2-yl)piperidine-2,6-dione]
< 100 nM | 50 to 75% | < 100 nM | > 75% | O=C1CCC(N2Cc3ccc(N4CCN(Cc5ccc(S[C@@H]6C[C@@H]7CNc8nnc(-c9cc(F)cc(F)c9O)cc8N7C6)cc5)CC4)cc3C2=O)C(=O)N1 (stereo partly drawn) [Example 32]
< 100 nM | > 75% | < 100 nM | > 75% | O=C1CCC(N2Cc3ccc(N4CCN(Cc5ccc(O[C@@H]6C[C@@H]7CNc8nnc(-c9cc(F)cc(F)c9O)cc8N7C6)nc5)CC4)cc3C2=O)C(=O)N1 (stereo partly drawn) [Example 33, 3-(6-(4-((6-(((6aR,8R)-2-(3,5-difluoro-2-hydroxyphenyl)-5,6,6a,7,8,9-hexahydropyrrolo[1′,2′:4,5]pyrazino[2,3-c]pyridazin-8-yl)oxy)pyridin-3-yl)methyl)piperazin-1-yl)-1-oxoisoindolin-2-yl)piperidine-2,6-dione]
> 1000 nM | < 50% | < 100 nM | 50 to 75% | C[C@@H]1CN(CC2CCN(c3ccc4c(c3)C(=O)N(C3CCC(=O)NC3=O)C4)CC2)C[C@H](C)N1C(=O)[C@@H]1C[C@@H]2CNc3nnc(-c4cccc(F)c4O)cc3N2C1 (stereo partly drawn) [Example 34, 3-(6-(4-(((3R,5S)-4-((6aR,8R)-2-(3-fluoro-2-hydroxyphenyl)-5,6,6a,7,8,9-hexahydropyrrolo[1′,2′:4,5]pyrazino[2,3-c]pyridazine-8-carbonyl)-3,5-dimethylpiperazin-1-yl)methyl)piperidin-1-yl)-1-oxoisoindolin-2-yl)piperidine-2,6-dione]
> 1000 nM | < 50% | > 1000 nM | 50 to 75% | CN(c1ccc(CN2CCN(c3ccc4c(c3)C(=O)N(C3CCC(=O)NC3=O)C4)CC2)cn1)[C@@H]1C[C@@H]2CNc3nnc(-c4cccc(F)c4O)cc3N2C1 (stereo partly drawn) [Example 35, 3-(6-(4-((6-(((6aR,8R)-2-(3-fluoro-2-hydroxyphenyl)-5,6,6a,7,8,9-hexahydro-pyrrolo[1′,2′:4,5]pyrazino[2,3-c]pyridazin-8-yl)(methyl)amino)pyridin-3-yl)methyl)piperazin-1-yl)-1-oxoisoindolin-2-yl)piperidine-2,6-dione]
< 100 nM | > 75% | < 100 nM | > 75% | Cc1cc(O[C@@H]2C[C@H]3CNc4nnc(-c5cccc(F)c5O)cc4N3C2)ccc1CN1CCN(c2ccc3c(c2)C(=O)N(C2CCC(=O)NC2=O)C3)CC1 (stereo partly drawn) [Example 36, 3-(6-(4-(4-(((6aS,8R)-2-(3-fluoro-2-hydroxyphenyl)-5,6,6a,7,8,9-hexahydro-pyrrolo[1′,2′:4,5]pyrazino[2,3-c]pyridazin-8-yl)oxy)-2-methylbenzyl)piperazin-1-yl)-1-oxoisoindolin-2-yl)piperidine-2,6-dione]
